Reference: patent publication US20250115600A1, “COVALENT MODIFIERS OF AKT1 AND USES THEREOF” (Terremoto Biosciences, Inc., priority 2022, published 2025)

Columns and labels:
Test in all cases: Live cell target engagement (NanoBRET) in HEK293 cells
Format in all cases: cell-based
AKT2 = AKT2 (Homo sapiens (Human), UniProt P31751); conditions: HEK293, 2 hours at 37° C.
AKT1 E17K = AKT1 E17K (Homo sapiens (Human), UniProt P31749, E17K); conditions: for IC50: HEK293, 2 hours at 37° C.
AKT1 WT = AKT1 WT (Homo sapiens (Human), UniProt P31749); conditions: HEK293, 2 hours at 37° C.
Chain of AKT1 WT (P31749 whole entry): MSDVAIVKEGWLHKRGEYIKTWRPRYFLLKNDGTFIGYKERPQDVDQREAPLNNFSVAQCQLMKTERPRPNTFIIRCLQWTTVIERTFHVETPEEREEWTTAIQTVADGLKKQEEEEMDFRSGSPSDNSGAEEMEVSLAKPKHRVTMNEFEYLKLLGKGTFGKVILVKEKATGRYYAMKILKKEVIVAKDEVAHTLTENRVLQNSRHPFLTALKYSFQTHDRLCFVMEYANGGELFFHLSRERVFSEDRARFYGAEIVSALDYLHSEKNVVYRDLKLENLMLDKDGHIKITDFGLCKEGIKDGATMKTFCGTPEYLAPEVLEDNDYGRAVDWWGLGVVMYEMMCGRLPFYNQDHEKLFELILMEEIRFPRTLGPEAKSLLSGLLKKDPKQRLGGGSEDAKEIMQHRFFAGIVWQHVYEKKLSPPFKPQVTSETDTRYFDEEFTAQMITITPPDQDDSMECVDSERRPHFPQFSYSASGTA

Chain of AKT2 (P31751 whole entry): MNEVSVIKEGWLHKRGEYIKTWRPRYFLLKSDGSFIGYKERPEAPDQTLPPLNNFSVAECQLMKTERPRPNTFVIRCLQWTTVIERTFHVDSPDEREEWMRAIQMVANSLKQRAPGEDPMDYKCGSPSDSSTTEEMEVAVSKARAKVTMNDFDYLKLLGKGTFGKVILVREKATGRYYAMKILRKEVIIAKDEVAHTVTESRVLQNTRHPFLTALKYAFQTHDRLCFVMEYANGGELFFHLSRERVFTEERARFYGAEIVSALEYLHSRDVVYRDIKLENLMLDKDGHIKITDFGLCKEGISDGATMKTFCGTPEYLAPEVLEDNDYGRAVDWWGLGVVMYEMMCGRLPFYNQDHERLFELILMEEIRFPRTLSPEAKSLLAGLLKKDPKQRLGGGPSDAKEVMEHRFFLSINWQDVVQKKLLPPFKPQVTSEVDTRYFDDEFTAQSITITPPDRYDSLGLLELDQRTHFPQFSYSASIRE
Chain of AKT1 E17K (P31749 whole entry E17K): as the sequence (P31749 whole entry) above, with E17K counted along it

Structure (SMILES) | IC50 (AKT2) [nM] | AKT1 E17K IC50: Selectivity vs AKT1 WT (AKT1 E17K) | AKT1 E17K IC50: Selectivity vs AKT2 (AKT1 E17K) | IC50 (AKT1 E17K) [nM] | IC50 (AKT1 WT) [nM]
CC(C)(O)C#Cc1ccc2nc(-c3cccnc3N)n(-c3ccc(CNC(=O)Cc4ccc(C=O)c(O)c4)cc3)c2n1 [Compound 51, N-(4-(2-(2-aminopyridin-3-yl)-5-(3-hydroxy-3-methylbut-1-yn-1-yl)-3H-imidazo[4,5-b]pyridin-3-yl)benzyl)-2-(4-formyl-3-hydroxyphenyl)acetamide] | > 500 | 3.8 | 90 | < 100 | 100 to 500
CC(=O)Nc1cccc(-c2ccc3nc(-c4cccnc4N)n(-c4ccc(CNCCc5ccc(C=O)c(O)c5F)cc4)c3n2)c1 [Compound 102, N-{3-[2-(2-aminopyridin-3-yl)-3-[4-({[2-(2-fluoro-4-formyl-3-hydroxyphenyl)ethyl]amino}methyl)phenyl]imidazo[4,5-b]pyridin-5-yl]phenyl}acetamide] | > 500 | 1.1 | 2 | 100 to 500 | 100 to 500
Nc1ncccc1-c1nc2ccc(-c3ccccc3)nc2n1-c1ccc(C(=O)NCC#Cc2ccc(C=O)c(O)c2)cc1 [Compound 104, 4-(2-(2-aminopyridin-3-yl)-5-phenyl-3H-imidazo[4,5-b]pyridin-3-yl)-N-(3-(4-formyl-3-hydroxyphenyl)prop-2-yn-1-yl)benzamide] | > 500 | 0.72 | 1 | > 500 | > 500
Nc1ncccc1-c1nc2ccc(-c3ccccc3)nc2n1-c1ccc(CNC(=O)C2(c3ccc(C=O)c(O)c3F)CC2)cc1 [Compound 59, N-(4-(2-(2-aminopyridin-3-yl)-5-phenyl-3H-imidazo[4,5-b]pyridin-3-yl)benzyl)-1-(2-fluoro-4-formyl-3-hydroxyphenyl)cyclopropane-1-carboxamide] | > 500 | 5.7 | 39 | 100 to 500 | > 500
CS(=O)(=O)Nc1cccc(-c2ccc3nc(-c4cccnc4N)n(-c4ccc(CNCCc5ccc(C=O)c(O)c5)cc4)c3n2)c1 [Compound 101, N-{3-[2-(2-aminopyridin-3-yl)-3-[4-({[2-(4-formyl-3-hydroxyphenyl)ethyl]amino}methyl)phenyl]imidazo[4,5-b]pyridin-5-yl]phenyl}methanesulfonamide] | 100 to 500 | 1.8 | 5.9 | < 100 | < 100
Nc1ncccc1-c1nc2ccc(-c3ccccc3)nc2n1-c1ccc(CN2CCC(c3ccc(O)c(C=O)c3)CC2)cc1 [Compound 136, 5-(1-(4-(2-(2-aminopyridin-3-yl)-5-phenyl-3H-imidazo[4,5-b]pyridin-3-yl)benzyl)piperidin-4-yl)-2-hydroxybenzaldehyde] | < 100 | 1.3 | 1.9 | < 100 | < 100
Nc1ncccc1-c1nc2cccnc2n1-c1ccc(CNC(=O)C2(c3ccc(C=O)c(O)c3)CC2)cc1 [Compound 82, N-(4-(2-(2-aminopyridin-3-yl)-3H-imidazo[4,5-b]pyridin-3-yl)benzyl)-1-(4-formyl-3-hydroxyphenyl)cyclopropane-1-carboxamide] | > 500 | 29 | >400 | < 100 | > 500
Nc1ncccc1-c1nc2ccc(-c3ccccc3)nc2n1-c1ccc(CNC(=O)Cc2ccc(C=O)c(O)c2C(F)(F)F)cc1 [Example 5, N-(4-(2-(2-aminopyridin-3-yl)-5-phenyl-3H-imidazo[4,5-b]pyridin-3-yl)benzyl)-2-(4-formyl-3-hydroxy-2-(trifluoromethyl)phenyl)acetamide] | > 500 | 2.9 | 32 | < 100 | < 100
Nc1ncccc1-c1nc2ccc(-c3cccnc3)nc2n1-c1ccc(CNCCc2ccc(C=O)c(O)c2F)cc1 [Compound 88, 4-(2-((4-(2-(2-aminopyridin-3-yl)-5-(pyridin-3-yl)-3H-imidazo[4,5-b]pyridin-3-yl)benzyl)amino)ethyl)-3-fluoro-2-hydroxybenzaldehyde] | 100 to 500 | 3.9 | 55 | < 100 | < 100
CN(C(=O)CCc1ccc(C=O)c(O)c1)c1ccc(-n2c(-c3cccnc3N)nc3ccc(-c4ccccc4)nc32)cc1 [Compound 100, N-(4-(2-(2-aminopyridin-3-yl)-5-phenyl-3H-imidazo[4,5-b]pyridin-3-yl)phenyl)-3-(4-formyl-3-hydroxyphenyl)-N-methylpropanamide] | > 500 | 1.9 | 13 | 100 to 500 | 100 to 500
Nc1ncccc1-c1nc2cccnc2n1-c1ccc(CNC(=O)Cc2ccc(C=O)c(O)c2F)cc1 [Compound 93, N-({4-[2-(2-aminopyridin-3-yl)imidazo[4,5-b]pyridin-3-yl]phenyl}methyl)-2-(2-fluoro-4-formyl-3-hydroxyphenyl)acetamide] | > 500 | 3.9 | 50 | < 100 | 100 to 500
Nc1ncccc1-c1nc2ccc(-c3ccccc3)nc2n1-c1ccc(CNC(=O)Cc2ccc(C=O)c(O)c2Cl)cc1 [Compound 63, N-({4-[2-(2-aminopyridin-3-yl)-5-phenylimidazo[4,5-b]pyridin-3-yl]phenyl}methyl)-2-(2-chloro-4-formyl-3-hydroxyphenyl)acetamide] | 100 to 500 | 1.2 | 8.3 | < 100 | < 100
Nc1ncccc1-c1nc2ccc(-c3cccc(N4CCOCC4)c3)nc2n1-c1ccc(CCNCc2ccc(C=O)c(O)c2)cc1 [Example 19, 4-(((4-(2-(2-aminopyridin-3-yl)-5-(3-morpholinophenyl)-3H-imidazo[4,5-b]pyridin-3-yl)phenethyl)amino)methyl)-2-hydroxybenzaldehyde] | < 100 | 1.7 | 4.9 | < 100 | < 100
Nc1ncccc1-c1nc2cccnc2n1-c1ccc(CNC(=O)c2ccc(O)c(C=O)c2)cc1 [Compound 83, N-({4-[2-(2-aminopyridin-3-yl)imidazo[4,5-b]pyridin-3-yl]phenyl}methyl)-3-formyl-4-hydroxybenzamide] | > 500 | 10 | 99 | < 100 | 100 to 500
Nc1ncccc1-c1nc2ccc(-c3ccccc3)nc2n1-c1ccc(CCNC(=O)c2ccc(C=O)c(O)c2)cc1 [Compound 111, N-(2-{4-[2-(2-aminopyridin-3-yl)-5-phenylimidazo[4,5-b]pyridin-3-yl]phenyl}ethyl)-4-formyl-3-hydroxybenzamide] | 100 to 500 | 0.83 | 6.3 | < 100 | < 100
Nc1ncccc1-c1nc2ccc(-c3ccncc3)nc2n1-c1ccc(CNCCc2ccc(C=O)c(O)c2)cc1 [Compound 119, 4-{2-[({4-[2-(2-aminopyridin-3-yl)-5-(pyridin-4-yl)imidazo[4,5-b]pyridin-3-yl]phenyl}methyl)amino]ethyl}-2-hydroxybenzaldehyde] | > 500 | 2.9 | 18 | < 100 | 100 to 500
CC1(c2ccc3nc(-c4cccnc4N)n(-c4ccc(CNC(=O)Cc5ccc(C=O)c(O)c5)cc4)c3n2)CC1 [Example 18, N-({4-[2-(2-aminopyridin-3-yl)-5-(1-methylcyclopropyl)imidazo[4,5-b]pyridin 3-yl]phenyl}methyl)-2-(4-formyl-3-hydroxyphenyl)acetamide] | > 500 | 6.1 | 150 | < 100 | 100 to 500
Nc1ncccc1-c1nc2cccnc2n1-c1ccc(CNC(=O)C(F)(F)c2ccc(C=O)c(O)c2)cc1 [Compound 78, N-(4-(2-(2-aminopyridin-3-yl)-3H-imidazo[4,5-b]pyridin-3-yl)benzyl)-2,2-difluoro-2-(4-formyl-3-hydroxyphenyl)acetamide] | > 500 | 2.2 | 43 | < 100 | 100 to 500
CC(=O)Nc1cc(CCNCc2ccc(-n3c(-c4cccnc4N)nc4cccnc43)cc2)ccc1C=O [Compound 98, N-(5-{2-[({4-[2-(2-aminopyridin-3-yl)imidazo[4,5-b]pyridin-3-yl]phenyl}methyl)amino]ethyl}-2-formylphenyl)acetamide] | > 500 | 2.5 | 38 | < 100 | < 100
Nc1ncccc1-c1nc2ccc(-c3ccccc3)nc2n1-c1ccc(CNC(=O)c2ccc(C=O)c(O)c2)cc1 [Compound 138, N-(4-(2-(2-aminopyridin-3-yl)-5-phenyl-3H-imidazo[4,5-b]pyridin-3-yl)benzyl)-4-formyl-3-hydroxybenzamide] |  | 0.52 |  | < 100 | < 100
Nc1ncccc1-c1nc2ccc(-c3ccccc3)nc2n1-c1ccc(CNC(=O)CCc2ccc(C=O)c(O)c2)cc1 [Compound 117] | 100 to 500 | 0.47 | 2 | 100 to 500 | 
